From US20100267561A1, “HERBICIDAL PYRIDAZINONE DERIVATIVES” (priority 2007, published 2010)

Tests used:
Assay type in all cases: in vivo
[1] = test system: chickweed (Stellaria media); experiment: Test B postemergence plant response; settings: for Plant response rating, Chickweed: Postemergence
Method in brief: (§1)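 Emerged plants, 1- to 4-leaf stage, treated; greenhouse 13–15 d; eye-scored vs untreated controls (0–100 scale).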

[2] = test system: canarygrass (Phalaris minor); experiment: Test B postemergence plant response; settings: for Plant response rating, Canarygrass: Postemergence
Method in brief: as §1

[3] = test system: windgrass (Apera spica-venti); experiment: Test B postemergence plant response; settings: for Plant response rating, Windgrass: Postemergence
Method in brief: as §1

[4] = test system: winter barley (Hordeum vulgare); experiment: Test B postemergence plant response; settings: for Plant response rating, Barley: Postemergence, scale 0 to 100, 0 no effect, 100 complete control
Method in brief: as §1

[5] = test system: annual bluegrass (Poa annua); experiment: Test C pre-/postemergence plant response
Method in brief: (§2)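 Ratings ran from 0 (no effect) to 100 (complete control) and were made visually against untreated controls 15–25 days after treatment in a controlled growth environment. Application was preemergence and, for some chemicals, postemergence at the 1- to 4-leaf stage (2–18 cm). Formulation was a non-phytotoxic solvent mixture with surfactant.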

[6] = test system: wild mustard (Sinapis arvensis); experiment: Test C pre-/postemergence plant response
Method in brief: as §2

[7] = test system: winter wheat (Triticum aestivum); experiment: Test C pre-/postemergence plant response
Method in brief: as §2

[8] = test system: downy bromegrass (Bromus tectorum); experiment: Test C pre-/postemergence plant response
Method in brief: as §2

wild oat (Avena fatua) = experiment: Test C pre-/postemergence plant response
Method in brief: as §2

[9] = test system: canarygrass (Phalaris minor); experiment: Test C pre-/postemergence plant response; settings: Preemergence
Method in brief: as §2

[10] = test system: windgrass (Apera spica-venti); experiment: Test C pre-/postemergence plant response
Method in brief: as §2

[11] = test system: Italian ryegrass (Lolium multiflorum); experiment: Test C pre-/postemergence plant response
Method in brief: as §2

[12] = test system: spring wheat (Triticum aestivum); experiment: Test C pre-/postemergence plant response
Method in brief: as §2

[13] = test system: green foxtail (Setaria viridis); experiment: Test C pre-/postemergence plant response
Method in brief: as §2

[14] = test system: winter barley (Hordeum vulgare); experiment: Test C pre-/postemergence plant response
Method in brief: as §2

[15] = test system: blackgrass (Alopecurus myosuroides); experiment: Test C pre-/postemergence plant response
Method in brief: as §2

[16] = test system: pigweed (Amaranthus retroflexus); experiment: Test C pre-/postemergence plant response
Method in brief: as §2

[17] = 8 g ai/ha, postemergence, 0-100 scale
[18] = 62 g ai/ha, scale 0 to 100, 0 no effect, 100 complete control
[19] = Postemergence, 8 g ai/ha, scale 0 to 100, 0 no effect, 100 complete control
[20] = Postemergence, 16 g ai/ha, scale 0 to 100, 0 no effect, 100 complete control
[21] = Postemergence, 31 g ai/ha, scale 0 to 100, 0 no effect, 100 complete control
[22] = Postemergence, 62 g ai/ha, scale 0 to 100, 0 no effect, 100 complete control
[23] = Preemergence, 8 g ai/ha, scale 0 to 100 (0 no effect, 100 complete control)
[24] = Preemergence, 16 g ai/ha, scale 0 to 100 (0 no effect, 100 complete control)
[25] = Preemergence, 31 g ai/ha, scale 0 to 100 (0 no effect, 100 complete control)
[26] = Preemergence, 62 g ai/ha, scale 0 to 100, 0 no effect, 100 complete control

Cc1cc(-c2ccc(Cl)cc2)nn1-c1c(OC(=O)OCC(C)C)cnn(C)c1=O [Compound 57]
70: Plant response rating, Windgrass [3, 18] | Plant response rating, Bromegrass, Downy [8, 22]
55: Plant response rating, Windgrass ([3]; 31 g ai/ha, scale 0 to 100)
100: Plant response rating, Oat, Wild (wild oat (Avena fatua); [22]) | Plant response rating, Ryegrass, Italian [11, 21] | Plant response rating, Ryegrass, Italian [11, 22] | Plant response rating, Ryegrass, Italian [11, 25] | Plant response rating, Ryegrass, Italian [11, 26] | Plant response rating, Foxtail, Green [13, 20] | Plant response rating, Foxtail, Green [13, 21] | Plant response rating, Foxtail, Green [13, 22] | Plant response rating, Foxtail, Green [13, 24] | Plant response rating, Foxtail, Green [13, 25] | Plant response rating, Foxtail, Green [13, 26]
95: Plant response rating, Blackgrass [15, 25] | Plant response rating, Blackgrass [15, 26]
80: Plant response rating, Bromegrass, Downy [8, 26] | Plant response rating, Oat, Wild (wild oat (Avena fatua); [26]) | Plant response rating, Canarygrass ([9]; 31 g ai/ha, scale 0 to 100 (0 no effect, 100 complete control))
10: Plant response rating, Bluegrass [5, 20] | Plant response rating, Oat, Wild (wild oat (Avena fatua); [19])
60: Plant response rating, Canarygrass [2, 18] | Plant response rating, Oat, Wild (wild oat (Avena fatua); [25]) | Plant response rating, Barley, Winter [14, 26]
98: Plant response rating, Ryegrass, Italian [11, 20] | Plant response rating, Blackgrass [15, 21]
50: Windgrass plant response rating [3, 17] | Plant response rating, Windgrass ([3]; 16 g ai/ha, scale 0 to 100) | Plant response rating, Bluegrass [5, 25] | Plant response rating, Wheat, Winter [7, 22] | Plant response rating, Windgrass [10, 25]
40: Plant response rating, Barley ([4]; 62 g ai/ha) | Plant response rating, Bromegrass, Downy [8, 25] | Plant response rating, Foxtail, Green [13, 23]
85: Plant response rating, Ryegrass, Italian [11, 24] | Plant response rating, Blackgrass [15, 24]
30: Plant response rating, Bluegrass [5, 21] | Plant response rating, Bluegrass [5, 24] | Plant response rating, Wheat, Winter [7, 20] | Plant response rating, Wheat, Winter [7, 21] | Plant response rating, Bromegrass, Downy [8, 20] | Plant response rating, Bromegrass, Downy [8, 21]
25: Plant response rating, Wheat, Spring [12, 20]
20: Plant response rating, Wheat, Winter [7, 25] | Plant response rating, Bromegrass, Downy [8, 24] | Plant response rating, Wheat, Spring [12, 23] | Plant response rating, Wheat, Spring [12, 24] | Plant response rating, Barley, Winter [14, 25]
0: Chickweed plant response rating [1, 17] | Plant response rating, Chickweed ([1]; 16 g ai/ha, scale 0 to 100) | Plant response rating, Chickweed ([1]; 31 g ai/ha, scale 0 to 100) | Plant response rating, Chickweed [1, 18] | Canarygrass plant response rating [2, 17] | Plant response rating, Canarygrass ([2]; 16 g ai/ha, scale 0 to 100) | Plant response rating, Canarygrass ([2]; 31 g ai/ha, scale 0 to 100) | Barley plant response rating [4, 17] | Plant response rating, Barley ([4]; 16 g ai/ha) | Plant response rating, Barley ([4]; 31 g ai/ha) | Plant response rating, Bluegrass [5, 19] | Plant response rating, Bluegrass [5, 23] | Plant response rating, Mustard, Wild [6, 19] | Plant response rating, Mustard, Wild [6, 20] | Plant response rating, Mustard, Wild [6, 21] | Plant response rating, Mustard, Wild [6, 22] | Plant response rating, Mustard, Wild [6, 23] | Plant response rating, Mustard, Wild [6, 24] | Plant response rating, Mustard, Wild [6, 25] | Plant response rating, Mustard, Wild [6, 26] | Plant response rating, Wheat, Winter [7, 19] | Plant response rating, Bromegrass, Downy [8, 19] | Plant response rating, Bromegrass, Downy [8, 23] | Plant response rating, Oat, Wild (wild oat (Avena fatua); [23]) | Plant response rating, Canarygrass ([9]; 8 g ai/ha, scale 0 to 100 (0 no effect, 100 complete control)) | Plant response rating, Windgrass [10, 19] | Plant response rating, Windgrass [10, 20] | Plant response rating, Windgrass [10, 21] | Plant response rating, Windgrass [10, 23] | Plant response rating, Windgrass [10, 24] | Plant response rating, Wheat, Spring [12, 19] | Plant response rating, Barley, Winter [14, 19] | Plant response rating, Barley, Winter [14, 23] | Plant response rating, Barley, Winter [14, 24] | Plant response rating, Pigweed [16, 19] | Plant response rating, Pigweed [16, 20] | Plant response rating, Pigweed [16, 21] | Plant response rating, Pigweed [16, 22] | Plant response rating, Pigweed [16, 23] | Plant response rating, Pigweed [16, 24] | Plant response rating, Pigweed [16, 25] | Plant response rating, Pigweed [16, 26]
65: Plant response rating, Bluegrass [5, 26] | Plant response rating, Wheat, Winter [7, 26] | Plant response rating, Windgrass [10, 22] | Plant response rating, Ryegrass, Italian [11, 23] | Plant response rating, Wheat, Spring [12, 25]
75: Plant response rating, Canarygrass ([9]; 16 g ai/ha, scale 0 to 100 (0 no effect, 100 complete control)) | Plant response rating, Windgrass [10, 26] | Plant response rating, Ryegrass, Italian [11, 19] | Plant response rating, Wheat, Spring [12, 21] | Plant response rating, Wheat, Spring [12, 22] | Plant response rating, Blackgrass [15, 20] | Plant response rating, Blackgrass [15, 23]
15: Plant response rating, Wheat, Winter [7, 23] | Plant response rating, Wheat, Winter [7, 24] | Plant response rating, Oat, Wild (wild oat (Avena fatua); [24]) | Plant response rating, Barley, Winter [14, 20] | Plant response rating, Barley, Winter [14, 21]
90: Plant response rating, Oat, Wild (wild oat (Avena fatua); [20]) | Plant response rating, Oat, Wild (wild oat (Avena fatua); [21]) | Plant response rating, Canarygrass [9, 18] | Plant response rating, Wheat, Spring [12, 26] | Plant response rating, Foxtail, Green [13, 19] | Plant response rating, Barley, Winter [14, 22]
35: Plant response rating, Bluegrass [5, 22] | Plant response rating, Blackgrass [15, 19]
